Test results published in the Kinase Knowledgebase extract (Sharma et al. 2016).

Biological target: PIK3CG (human) (UniProt P48736)
Experiment: Assessment of PIK3CG Kinase Activity

PIK3CG (human), sequence (P48736 whole entry, looked up): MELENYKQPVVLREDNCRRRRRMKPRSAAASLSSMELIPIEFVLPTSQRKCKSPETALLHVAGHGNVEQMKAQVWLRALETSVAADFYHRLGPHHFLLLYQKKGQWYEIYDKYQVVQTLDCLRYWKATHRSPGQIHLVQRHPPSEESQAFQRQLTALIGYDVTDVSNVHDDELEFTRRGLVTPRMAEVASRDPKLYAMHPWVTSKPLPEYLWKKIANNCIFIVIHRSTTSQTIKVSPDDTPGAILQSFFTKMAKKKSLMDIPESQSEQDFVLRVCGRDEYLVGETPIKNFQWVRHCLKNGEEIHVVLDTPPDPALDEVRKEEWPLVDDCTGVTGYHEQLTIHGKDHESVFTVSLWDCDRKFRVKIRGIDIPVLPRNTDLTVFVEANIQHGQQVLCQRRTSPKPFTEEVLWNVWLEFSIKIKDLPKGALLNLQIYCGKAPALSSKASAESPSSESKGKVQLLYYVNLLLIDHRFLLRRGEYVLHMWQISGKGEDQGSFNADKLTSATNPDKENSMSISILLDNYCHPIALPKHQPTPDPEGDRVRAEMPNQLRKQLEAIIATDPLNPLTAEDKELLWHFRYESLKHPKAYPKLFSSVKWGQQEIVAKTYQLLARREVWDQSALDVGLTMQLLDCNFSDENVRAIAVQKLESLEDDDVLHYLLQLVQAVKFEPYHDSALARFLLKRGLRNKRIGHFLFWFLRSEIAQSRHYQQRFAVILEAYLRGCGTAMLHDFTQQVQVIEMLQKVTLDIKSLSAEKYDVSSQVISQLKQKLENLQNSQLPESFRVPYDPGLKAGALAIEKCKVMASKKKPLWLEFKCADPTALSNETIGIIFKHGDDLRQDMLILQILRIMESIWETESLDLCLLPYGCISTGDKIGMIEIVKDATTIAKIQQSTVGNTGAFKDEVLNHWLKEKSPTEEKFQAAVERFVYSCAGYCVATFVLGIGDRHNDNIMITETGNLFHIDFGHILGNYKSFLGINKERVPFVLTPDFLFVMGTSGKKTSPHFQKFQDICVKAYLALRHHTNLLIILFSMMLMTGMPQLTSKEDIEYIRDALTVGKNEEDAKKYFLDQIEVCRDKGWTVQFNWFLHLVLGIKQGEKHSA

IC50 | SMILES
< 800 nM | NC(=O)Nc1nc2c(s1)-c1c(c(-c3cncnc3)nn1-c1ccccc1Cl)CC2
< 800 nM | CC(C)COC(=O)N1CCC[C@@H]1CNC(=O)Nc1nc2c(s1)-c1c(c(-c3cncnc3)nn1-c1ccccc1Cl)CC2
< 800 nM | O=C(NCc1ccc(CN2CCNC2=O)cc1)Nc1nc2c(s1)-c1c(c(-c3cccnc3)nn1-c1ccccc1Cl)CC2
< 800 nM | Nc1nnc(CNC(=O)Nc2nc3c(s2)-c2c(c(-c4cncnc4)nn2-c2ccccc2Cl)CC3)[nH]1
< 800 nM | CN1CCN(Cc2ccc(NC(=O)Nc3nc4c(s3)-c3c(c(-c5cncnc5)nn3-c3ccccc3F)CC4)cc2)CC1
< 800 nM | COC(=O)N1CC[C@H](CNC(=O)Nc2nc3c(s2)-c2c(c(-c4cncnc4)nn2-c2ccccc2Cl)CC3)C1
< 800 nM | CC(=O)N(C)c1cccc(CNC(=O)Nc2nc3c(s2)-c2c(c(C4CC4)nn2-c2ccccc2Cl)CC3)c1
< 800 nM | O=C(NCc1ccc2cc[nH]c2c1)Nc1nc2c(s1)-c1c(c(-c3cncnc3)nn1-c1ccccc1Cl)CC2
< 800 nM | O=C(NCc1ccc(N2CCNC2=O)cc1)Nc1nc2c(s1)-c1c(c(-c3ccccc3)nn1-c1cccc(Cl)c1)CC2
< 800 nM | O=C(NCc1ccc2c(c1)OCO2)Nc1nc2c(s1)-c1c(c(-c3cncnc3)nn1-c1ccccc1Cl)CC2
< 800 nM | Cn1ccnc1CNC(=O)Nc1nc2c(s1)-c1c(c(-c3cccnc3)nn1-c1ccccc1Cl)CC2
< 800 nM | CN(C)c1cccc(CNC(=O)Nc2nc3c(s2)-c2c(c(-c4cccnc4)nn2-c2ccccc2Cl)CC3)c1
< 800 nM | CC(C)(C)OC(=O)Nc1cccc(CNC(=O)Nc2nc3c(s2)-c2c(c(-c4cncnc4)nn2-c2ccccc2Cl)CC3)c1
< 800 nM | CC(C)(C)OC(=O)Nc1cccc(CNC(=O)Nc2nc3c(s2)-c2c(c(-c4cccnc4)nn2-c2ccccc2Cl)CC3)c1
< 800 nM | CN1CCN(Cc2cccc(NC(=O)Nc3nc4c(s3)-c3c(c(-c5cncnc5)nn3-c3ccccc3F)CC4)c2)CC1
< 800 nM | NC(=O)c1ccc(CNC(=O)Nc2nc3c(s2)-c2c(c(-c4cncnc4)nn2-c2ccccc2Cl)CC3)cc1
< 800 nM | O=C(Nc1nc2c(s1)-c1c(c(-c3cccnc3)nn1-c1ccccc1Cl)CC2)N1CCC(N2Cc3ccccc3NC2=O)C1 (stereo not given)
< 800 nM | O=C(NC[C@@H]1CCCN1)Nc1nc2c(s1)-c1c(c(-c3cncnc3)nn1-c1ccccc1Cl)CC2
< 800 nM | CC(C)(C)OC(=O)N1CCC[C@H]1CNC(=O)Nc1nc2c(s1)-c1c(c(-c3cccnc3)nn1-c1ccccc1Cl)CC2
< 800 nM | CC(C)c1nnc(CCNC(=O)Nc2nc3c(s2)-c2c(c(-c4cccnc4)nn2C2CCN(C)CC2)CC3)o1
< 800 nM | CC(C)(C)OC(=O)NC1CCN(C(=O)Nc2nc3c(s2)-c2c(c(-c4cccnc4)nn2-c2ccccc2Cl)CC3)C1 (stereo not given)
< 800 nM | CCN1CCC[C@@H]1CNC(=O)Nc1nc2c(s1)-c1c(c(-c3cccnc3)nn1-c1ccccc1Cl)CC2
< 800 nM | O=C1CCC(NC(=O)Nc2nc3c(s2)-c2c(c(-c4cccnc4)nn2-c2ccccc2Cl)CC3)C(c2ccccc2)N1 (stereo not given)
< 800 nM | NC(=O)c1cccc(CNC(=O)Nc2nc3c(s2)-c2c(c(-c4cccnc4)nn2C2CCN(C4CCCC4)CC2)CC3)c1
< 800 nM | O=C(NCc1cccc(C(=O)NC2CCCCC2)c1)Nc1nc2c(s1)-c1c(c(-c3cccnc3)nn1-c1ccccc1Cl)CC2
< 800 nM | CCOC(=O)N1CC[C@H](CNC(=O)Nc2nc3c(s2)-c2c(c(-c4cncnc4)nn2-c2ccccc2Cl)CC3)C1
< 800 nM | O=C(NCc1ccc2nc[nH]c2c1)Nc1nc2c(s1)-c1c(c(-c3cncnc3)nn1-c1ccccc1Cl)CC2

IC50 | SMILES
< 800 nM | O=C(NCCC(=O)N1CCOCC1)Nc1nc2c(s1)-c1c(c(-c3ccccc3)nn1-c1ccccc1Cl)CC2
< 800 nM | CCOC(=O)N1CCC[C@@H]1CNC(=O)Nc1nc2c(s1)-c1c(c(-c3cncnc3)nn1-c1ccccc1Cl)CC2
< 800 nM | O=C(NC[C@H]1CCCN1)Nc1nc2c(s1)-c1c(c(-c3cncnc3)nn1-c1ccccc1Cl)CC2
< 800 nM | O=C(NCCN1CCOCC1)Nc1nc2c(s1)-c1c(c(-c3cncnc3)nn1-c1ccccc1Cl)CC2
< 800 nM | O=C(NC[C@@H]1CCCN1)Nc1nc2c(s1)-c1c(c(-c3cncnc3)nn1-c1ccccc1F)CC2
< 800 nM | CNC(=O)Nc1nc2c(s1)-c1c(c(-c3cccnc3)nn1-c1ccc(S(N)(=O)=O)cc1Cl)CC2
< 800 nM | CN(C)C(=O)CCNC(=O)Nc1nc2c(s1)-c1c(c(C3CC3)nn1-c1ccccc1Cl)CC2
< 800 nM | O=C(NCC1CCCCN1)Nc1nc2c(s1)-c1c(c(-c3cncnc3)nn1-c1ccccc1Cl)CC2 (stereo not given)
< 800 nM | O=C(NCc1cccnc1N1CCCC1)Nc1nc2c(s1)-c1c(c(-c3cncnc3)nn1-c1ccccc1Cl)CC2
< 800 nM | O=C(NCCc1ccccn1)Nc1nc2c(s1)-c1c(c(-c3cccnc3)nn1-c1ccccc1Cl)CC2
< 800 nM | CN1CCC(O)C2(CCCN(C(=O)Nc3nc4c(s3)-c3c(c(-c5cccnc5)nn3-c3ccccc3Cl)CC4)C2)C1 (stereo not given)
< 800 nM | COc1ccc(S(=O)(=O)NCCNC(=O)Nc2nc3c(s2)-c2c(c(-c4ccccc4)nn2-c2ccccc2Cl)CC3)cc1
< 800 nM | O=C(Nc1nc2c(s1)-c1c(c(-c3ccccc3)nn1-c1ccccc1Cl)CC2)NC1CCS(=O)(=O)C1 (stereo not given)
< 800 nM | CCNC(=O)Nc1nc2c(s1)-c1c(c(-c3cccnc3)nn1-c1ccc(S(N)(=O)=O)cc1Cl)CC2
< 800 nM | CCN1CCC[C@H]1CNC(=O)Nc1nc2c(s1)-c1c(c(-c3cccnc3)nn1-c1ccccc1Cl)CC2
< 800 nM | O=C(Nc1nc2c(s1)-c1c(c(-c3cccnc3)nn1-c1ccccc1Cl)CC2)N1CCC(CN2CCc3ccccc3C2=O)C1 (stereo not given)
< 800 nM | O=C(NC[C@H]1CCCN1C(=O)OCc1ccccc1)Nc1nc2c(s1)-c1c(c(-c3cncnc3)nn1-c1ccccc1Cl)CC2
< 800 nM | O=C(NCc1cc(C2CC2)n[nH]1)Nc1nc2c(s1)-c1c(c(-c3cncnc3)nn1-c1ccccc1Cl)CC2
< 800 nM | CN(C)S(=O)(=O)c1ccccc1CNC(=O)Nc1nc2c(s1)-c1c(c(-c3ccccc3)nn1-c1ccccc1Cl)CC2
< 800 nM | O=C(Nc1nc2c(s1)-c1c(c(-c3cccnc3)nn1-c1ccccc1Cl)CC2)NC1CCC(N2CCNC2=O)CC1 (stereo not given)
< 800 nM | O=C(Nc1nc2c(s1)-c1c(c(-c3cncnc3)nn1-c1ccccc1Cl)CC2)N1CCC(NC(=O)C(F)(F)F)C1 (stereo not given)
< 800 nM | CCn1cnc(CCNC(=O)Nc2nc3c(s2)-c2c(c(C4CC4)nn2-c2ccccc2Cl)CC3)c1
< 800 nM | CN1CCC(n2nc(-c3cccnc3)c3c2-c2sc(NC(=O)NCc4cccc(N(C)C)c4)nc2CC3)CC1
< 800 nM | O=C(NCCC(=O)N1CCCCC1)Nc1nc2c(s1)-c1c(c(-c3cncnc3)nn1-c1ccccc1Cl)CC2
< 800 nM | CCc1cnc(CCNC(=O)Nc2nc3c(s2)-c2c(c(-c4cccnc4)nn2C2CCN(C)CC2)CC3)o1
< 800 nM | CCc1nnc(CCNC(=O)Nc2nc3c(s2)-c2c(c(C4CC4)nn2-c2ccccc2Cl)CC3)o1
< 800 nM | CNC(=O)c1cccc(CNC(=O)Nc2nc3c(s2)-c2c(c(-c4cccnc4)nn2-c2ccccc2Cl)CC3)c1

IC50 | SMILES
< 800 nM | CNC(=O)Nc1nc2c(s1)-c1c(c(-c3cncnc3)nn1-c1ccccc1F)CC2
< 800 nM | O=C(NCc1cc(CN2CCOCC2)ccn1)Nc1nc2c(s1)-c1c(c(-c3cncnc3)nn1-c1ccccc1Cl)CC2
< 800 nM | O=C(Nc1nc2c(s1)-c1c(c(-c3cccnc3)nn1-c1ccccc1Cl)CC2)N1CCC(NC(=O)C(F)(F)F)C1 (stereo not given)
< 800 nM | C[C@@H](NC(=O)Nc1nc2c(s1)-c1c(c(-c3ccccc3)nn1-c1ccccc1Cl)CC2)C(=O)N1CCOCC1
< 800 nM | CC(C)(C)OC(=O)N1CCCC1CNC(=O)Nc1nc2c(s1)-c1c(c(Nc3ccccn3)nn1-c1ccccc1)CC2 (stereo not given)
< 800 nM | CCn1cnc(CCNC(=O)Nc2nc3c(s2)-c2c(c(-c4ccccc4)nn2-c2ccccc2Cl)CC3)c1
< 800 nM | O=C(NCCc1cccc(N2CCNC2=O)c1)Nc1nc2c(s1)-c1c(c(-c3cccnc3)nn1-c1ccccc1Cl)CC2
< 800 nM | CC(C)(C)OC(=O)CCNC(=O)Nc1nc2c(s1)-c1c(c(C3CC3)nn1-c1ccccc1Cl)CC2
< 800 nM | CN1CCN(C(=O)CCCNC(=O)Nc2nc3c(s2)-c2c(c(-c4ccccc4)nn2-c2ccccc2Cl)CC3)CC1
< 800 nM | CC(=O)Nc1cccc(CNC(=O)Nc2nc3c(s2)-c2c(c(-c4cncnc4)nn2-c2ccccc2Cl)CC3)c1
< 800 nM | O=C(NCCc1nc(C2CC2)no1)Nc1nc2c(s1)-c1c(c(C3CC3)nn1-c1ccccc1Cl)CC2
< 800 nM | Cc1ccc(CN2CC(CNC(=O)Nc3nc4c(s3)-c3c(c(-c5cccnc5)nn3-c3ccccc3Cl)CC4)CC2=O)cc1 (stereo not given)
< 800 nM | CC(C)(C)OC(=O)CCNC(=O)Nc1nc2c(s1)-c1c(c(-c3ccccc3)nn1-c1cccc(Cl)c1)CC2
< 800 nM | CN(C)C(=O)CCNC(=O)Nc1nc2c(s1)-c1c(c(-c3cccnc3)nn1C1CCN(C3CCCC3)CC1)CC2
< 800 nM | O=C(Nc1nc2c(s1)-c1c(c(-c3cccnc3)nn1-c1ccccc1Cl)CC2)NC1(c2nc3ccc(Cl)cc3[nH]2)CCCCC1
< 800 nM | CCc1nnc(CCNC(=O)Nc2nc3c(s2)-c2c(c(-c4cccnc4)nn2-c2ccccc2Cl)CC3)o1
< 800 nM | CCc1csc(CCNC(=O)Nc2nc3c(s2)-c2c(c(-c4ccccc4)nn2-c2cccc(Cl)c2)CC3)n1
< 800 nM | CNC(=O)[C@@H]1CCCC[C@H]1NC(=O)Nc1nc2c(s1)-c1c(c(-c3ccccc3)nn1-c1ccccc1Cl)CC2
< 800 nM | CCN(CC)CCNC(=O)Nc1nc2c(s1)-c1c(c(-c3cncnc3)nn1-c1ccccc1F)CC2
< 800 nM | O=C(O)CC1(CNC(=O)Nc2nc3c(s2)-c2c(c(-c4cccnc4)nn2-c2ccccc2Cl)CC3)CCCCC1
< 800 nM | CC(C)S(=O)(=O)NCCNC(=O)Nc1nc2c(s1)-c1c(c(-c3ccccc3)nn1-c1ccccc1Cl)CC2
< 800 nM | CC(C)(C)OC(=O)N1CC[C@@H](CNC(=O)Nc2nc3c(s2)-c2c(c(-c4cncnc4)nn2-c2ccccc2Cl)CC3)C1
< 800 nM | CN(C)C(=O)N1CCC[C@@H]1CNC(=O)Nc1nc2c(s1)-c1c(c(-c3cncnc3)nn1-c1ccccc1Cl)CC2
< 800 nM | CN(C)C(=O)CNC(=O)Nc1nc2c(s1)-c1c(c(C3CC3)nn1-c1ccccc1Cl)CC2
< 800 nM | O=C(NCc1ncc[nH]1)Nc1nc2c(s1)-c1c(c(-c3cccnc3)nn1-c1ccccc1Cl)CC2
< 800 nM | COc1cccc(CNC(=O)Nc2nc3c(s2)-c2c(c(-c4cccnc4)nn2C2CCN(C4CCCC4)CC2)CC3)c1
